From ChEMBL document CHEMBL1287808, “Synthesis and anti-HCV activity of a new 2'-deoxy-2'-fluoro-2'-C-methyl nucleoside analogue” (Bioorg Med Chem Lett, 2010)
In brackets after ≈: the same amount, converted by molar mass. Activity calls are given as the source filed them. The rule behind the calls is not given here.

Tests used:
Hepatitis C virus [1] = experiment: Antiviral activity against Hepatitis C virus infected in Ava5 cell assessed as suppression of HCV replication at 6 ug/ml; type: functional, organism-based; details: Hepacivirus hominis
Hepatitis C virus [2] = experiment: Antiviral activity against Hepatitis C virus infected in Ava5 cell assessed as suppression of HCV replication at 0.6 ug/ml; type: functional, organism-based; details: Hepacivirus hominis
Hepatitis C virus [3] = experiment: Antiviral activity against Hepatitis C virus infected in Ava5 cell assessed as suppression of HCV replication at 0.06 ug/ml; type: functional, organism-based; details: Hepacivirus hominis
Hepatitis C virus [4] = experiment: Antiviral activity against Hepatitis C virus infected in HEK293 cell expressing sip-L protein assessed viral RNA level; type: functional, organism-based, Hepacivirus hominis
Hepatitis C virus [5] = experiment: Antiviral activity against Hepatitis C virus infected in HEK293 cell expressing sip-L protein; type: functional, organism-based, Hepacivirus hominis

Q: What does the source list for C[C@@]1(F)[C@H](O)[C@@H](CO)O[C@H]1n1cc(F)c2c(N)ncnc21?
A: Activity (Hepatitis C virus [1]): Active; Activity (Hepatitis C virus [2]): Active; Activity (Hepatitis C virus [3]): inactive; EC50 (Hepatitis C virus [4]): 0.8 µg/mL (≈ 2.66 µM); IC50 (Hepatitis C virus [5]): 350 µg/mL (≈ 1170 µM)
